According to US20030108872A1, “Genomics-assisted rapid identification of targets” (priority 2000, published 2003):

Experiments:
[1] = tested on: strains carrying the wild-type murA gene (single copy or multiple copies); test: Growth on MHB plates with phosphomycin, wild-type murA; assay type: cell-based, E. coli
Description: (§1) E. coli mutants resistant to phosphomycin were obtained by plating E. coli MC1061 cells in the presence of 5 μg/ml phosphomycin (about 5×MIC), in MHB. Colonies of these resistant mutants were picked and repatched on MHB plates supplemented with 5 μg/ml. […] To determine whether the phenotype of phosphomycin resistance is due to these changes in the murA gene, primers murA-F1 and murA-R1 were used to amplify up a region consisting of 1 kb upstream of the murA gene and 1 kb downstream of the murA gene using as template, DNA extracted from MC1061 and from the phosphomycin-resistant murA mutants. The 3.5 kb PCR amplification fragments were cloned into a high copy vector, and 3 independent clones were picked for each type. The clones, carrying multi-copy plasmids with either wild-type murA or mutated mura, were streaked onto MHB plates and on MHB supplemented with 5, 25, and 50 ,μg/ml phosphomycin. The wild-type MC1061 strain (carrying a single copy of the wild-type murA gene) and the original mutants resistant to phosphomycin were used as controls. All strains grew on MHB plates without phosphomycin. On MHB plates with 5 μg/ml phosphomycin, there was slight growth for strains carrying the wild-type murA gene, whether present in single copy or multiple copies, whereas there was robust growth for cells with the mutated murA gene, whether present in single or multiple copies. On MHB plates with 25 μg/ml phosphomycin, there was no growth for strains carrying the wild-type mura gene, whether present in single copy or multiple copies, but there was robust growth for cells carrying single or multiple copies of the mutated murA gene. On MHB plates with 50 μg/ml phosphomycin, there was no growth for strains carrying wild-type murA (whether present in single copy or multiple copies) but slight growth for strains carrying the mutated murA gene whether present in single or multiple copies. Clearly, the mutants isolated because of their phenotype of resistance to phosphomycin carry mutant mura genes which can confer resistance when transferred to other cells by transformation. […]

[2] = tested on: cells with the mutated murA gene (single or multiple copies); test: Growth on MHB plates with phosphomycin, mutated murA; assay type: cell-based, E. coli
Description: as §1

SMILES: C[C@@H]1O[C@@H]1P(=O)(O)O [phosphomycin]
- growth on MHB plates ([1]; 5 μg/ml phosphomycin): slight growth
- growth on MHB plates ([1]; 25 μg/ml phosphomycin): no growth
- growth on MHB plates ([1]; 50 μg/ml phosphomycin): no growth
- growth on MHB plates ([2]; 5 μg/ml phosphomycin): robust growth
- growth on MHB plates ([2]; 25 μg/ml phosphomycin): robust growth
- growth on MHB plates ([2]; 50 μg/ml phosphomycin): slight growth
